20 molecules from patent US9796697B2, “Tricyclic inhibitors of HIF-2-alpha and uses thereof” (Peloton Therapeutics, Inc., priority 2015, dated 2017) can be followed below.

The term EC50 denotes the concentration at which the effect is half-maximal.

The target of test [1] is T1, HIF-2α HIS TAG-PASB Domain (Homo sapiens, UniProt Q99814).
T1 construct: 100 nM HIF-2α HIS TAG-PASB Domain
The test can be described thus: HIF-2α Scintillation Proximity Assay (SPA). The class given is binding. The settings on record: displacement of tritiated probe N-(3-Chlorophenyl-4,6-t2)-4-nitrobenzo[c][1,2,5]oxadiazol-5-amine from HIF-2α PASB domain. On the procedure: Example 8: HIF-2α Scintillation Proximity Assay (SPA)
The total assay volume was about 100 μL in the following configuration: 2 μL compound in 100% DMSO, 88 μL buffer with protein and probe and 10 μL of SPA beads. The compound was diluted in a master plate consisting of a 10-point dose response with a 3-fold compound dilution from 100 μM to 5 nM. Assays were run on a 96-well plate in which one column, designated as the high signal control, contained DMSO with no compound and another column, designated as the low signal control, contained no protein. Prior to plating out of compound, a buffer solution, consisting of 25 mM TRIS pH 7.5 (Sigma), 150 mM NaCl (Sigma), 15% Glycerol (Sigma), 0.15% BSA (Sigma), 0.001% Tween-20 (Sigma), 150 nM N-(3-Chlorophenyl-4,6-t2)-4-nitrobenzo[c][1,2,5]oxadiazol-5-amine and 100 nM HIF-2α HIS TAG-PASB Domain, was made and allowed to equilibrate for 30 minutes. Compounds that were to be tested were then plated in to a 96-well white clear bottom Isoplate-96 SPA plate (Perkin Elmer). To the compounds was added 88 μL of the buffer solution, then the plate covered with a plastic cover and aluminum foil, placed onto a shaker and equilibrated for 1 hour. After equilibration, 10 μL of a 2 mg/mL solution of YSi Cu His tagged SPA beads (Perkin Elmer) were then added to each well of the plate, covered and equilibrated for another 2 hours. The plates were then removed from the shaker, placed into a 1450 LSC and luminescence counter MicroBeta Trilux (Perkin Elmer) to measure the extent of probe displacement. The percent inhibition was determined and IC50 values were calculated using the Dotmatics system based on the following equation: % inhibition=[(high control−sample)/(high control−low control)]×100.

The test system of test [2] is 786-O-Hif-Luc cells. The test can be described thus: Luciferase Assay. To be noted: HIF responsive element luciferase reporter, about 24 hours. The test is classed as cell-based. On the procedure:
Example 10: Luciferase Assay
786-O-Hif-Luc single clone cells were obtained by infecting 786-0 cells (ATCC® CRL-1932™) with commercial lentivirus that delivers a luciferase gene driven by multiple HIF responsive elements (Cignal Lenti HIF Reporter (luc): CLS-007L, Qiagen) at Multiplicity of Infection (MOI) of 25 for 24 hours. The cells were replenished with fresh medium (Dulbecco's Modified Eagle's Medium (DMEM, D5796, Sigma) supplemented with 10% FBS (F6178, Sigma), 100 units penicillin and 100 μg streptomycin/mL (P4333, Sigma)) for another 24 hours. A pool of infected cells were then selected against 2 μg/mL of puromycin (P8833, Sigma) for 10 days followed by limited dilution to select single clones. […] For the luciferase assay, about 7500 786-O-Hif-Luc cells in 90 μL growth medium were seeded into each well of a 96-well white opaque plate (08-771-26, Fisher scientific) a day before treatment with the layout presented in FIG. 2.
On treatment day, serial dilutions of 10× compound stocks were made in growth medium from 500×DMSO stocks, and 10 μL, of the 10× stocks were added to each well to make final concentrations as follows GAM): 20, 6.67, […], 0.74, 0.25, 0.08, 0.027, 0.009, 0.003, 0.001, and 0. Each concentration was tested in triplicate. After about 24 hours, luciferase activity was determined using ONE-Glo Luciferase Assay Reagent (E6110, Promega) following the manufacturer's recommended procedure. EC50 were calculated using Dotmatics software.
On the technique in general: A reporter such as luciferase makes a cellular process visible.

Test [3] relates to 786-O cells. The test can be described thus: VEGF ELISA Assay. The class given is cell-based. The settings on record: Homo sapiens, 786-0; VEGF concentration in culture medium of 786-O cells. On the procedure: Example 9: VEGF ELISA Assay
About 7500 786-O cells in 180 μL of growth medium were seeded into each well of a 96-well, white, clear bottom plate (07-200-566, Fisher Scientific) on day one in the layout presented in FIG. 1.
Four hours later, serial dilutions of 10× compound stocks were made in growth medium from 500×DMSO stocks, and 20 μL of those 10× stocks were added to each well to make final concentrations as follows (μM): 20, 6.67, 2.22, 0.74, 0.25, 0.082, 0.027, 0.009, 0.003, 0.001, and 0. Each concentration was plated in duplicate. About 20 hours later, medium was removed by suction and each well was supplied with 180 μL of growth medium. About 20 μl freshly-made 10× compound stocks were added to each well. […] The EC50 was calculated by GraphPad Prism using the dose-response-inhibition (four parameter) equation. The cell-seeded plate was then subjected to CellTiter-Glo luminescence cell viability assay (Promega) by adding 50 μL of Celltiter Glo reagent into each well and shaking the plate for 8 minutes at 550 rpm (Thermomixer R, Eppendorf) then the luminescence signal immediately read in a plate reader (3 second delay, 0.5 second/well integration time, Synergy 2 multi Detection Microplate reader).
Background: In an ELISA, binding on a coated surface is turned into a signal by an enzyme label.

T1 sequence (Q99814 239-348): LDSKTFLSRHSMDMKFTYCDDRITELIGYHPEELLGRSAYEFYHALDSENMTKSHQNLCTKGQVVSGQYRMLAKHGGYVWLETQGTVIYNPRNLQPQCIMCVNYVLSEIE

As to `C=C1CC2(N)c3c(ccc(Oc4cc(F)cc(C#N)c4)c31)S(=O)(=O)C2(F)F` (centres unmarked) [Compound 3, 3-((2a-amino-2,2-difluoro-4-methylene-1,1-dioxido-2,2a,3,4-tetrahydroindeno[7,1-bc]thiophen-5-yl)oxy)-5-fluorobenzonitrile], the values for the EC50 in test [1] and in test [2] were 0.05 to 0.249 µM and 0.25 to 1 µM, respectively.

On to `N#Cc1cc(F)cc(Oc2ccc3c4c2C(F)C(F)C4(O)CS3(=O)=O)c1` (centres unmarked) [Compound 5], for which the EC50 in test [1] and in test [2] was above 1 µM throughout.

Regarding `N#Cc1cc(F)cc(Oc2ccc3c4c2CCC4C(F)(F)S3(=O)=O)c1` (centres unmarked) [Compound 18], the half-maximal effective concentration (EC50) was in the range of 0.05 to 0.249 µM in test [1] and 0.25 to 1 µM in test [2].

In turn, `N#Cc1cc(F)cc(Oc2ccc3c4c2C(F)C(F)C4(F)CS3(=O)=O)c1` (centres unmarked) [Compound 16] showed an EC50 in test [1] above 1 µM.

For the molecule `C=C1CC2(O)CS(=O)(=O)c3ccc(Oc4cc(F)cc(C#N)c4)c1c32` (centres unmarked) [Compound 12], in test [1], the EC50 is above 1 µM.

As to `N#Cc1cc(F)cc(Oc2ccc3c4c2C(=O)CC4(O)C(F)(F)S3(=O)=O)c1` (centres unmarked) [Compound 11, 3-((2,2-difluoro-2a-hydroxy-1,1-dioxido-4-oxo-2,2a,3,4-tetrahydroindeno[7,1-bc]thiophen-5-yl)oxy)-5-fluorobenzonitrile], the 50% effective concentration (EC50) in test [1] and in test [2] was 0.25 to 1 µM throughout.

`C=C1CC2(O)c3c(ccc(Oc4cncc(C#N)c4)c31)S(=O)(=O)C2(F)F` (centres unmarked) [Compound 14]: the EC50 in test [1] is below 0.05 µM; in test [2], 0.25 to 1 µM.

The molecule `C=C1CC2(O)c3c(ccc(OCC(F)F)c31)S(=O)(=O)C2(F)F` (centres unmarked) [Compound 17] displayed an EC50 in test [1] above 1 µM.

For `N#Cc1cncc(Oc2ccc3c4c2C(F)CC4(F)C(F)(F)S3(=O)=O)c1` (centres unmarked) [Compound 2], in test [1], the EC50 was above 1 µM.

`C=C1CC2(O)c3c(ccc(Oc4cncc(F)c4)c31)S(=O)(=O)C2(F)F` (centres unmarked) [Compound 9]: the EC50 in test [1] and in test [2] was 0.25 to 1 µM throughout.

With `N#Cc1cc(F)cc(Oc2ccc3c4c2[C@@H](F)C[C@]4(O)C(F)(F)S3(=O)=O)c1` [Compound 15], the concentration giving a half-maximal response (EC50) in test [1], in test [3] and in test [2] was below 0.05 µM in each case.

As to `N#Cc1cncc(Oc2ccc3c4c2C(F)CC4(O)C(F)(F)S3(=O)=O)c1` (centres unmarked) [Compound 19], the EC50 lay within 0.05 to 0.249 µM in test [1] and 0.25 to 1 µM in test [2].

Regarding `N#Cc1cc(F)cc(Oc2ccc3c4c2C(F)CC4(F)C(F)(F)S3(=O)=O)c1` (centres unmarked) [Compound 10, 3-fluoro-5-((2,2,2a,4-tetrafluoro-1,1-dioxido-2,2a,3,4-tetrahydroindeno[7,1-bc]thiophen-5-yl)oxy)benzonitrile], the EC50 in test [1] was in the range of 0.25 to 1 µM.

For the molecule `C=C1CC2(O)c3c(ccc(Oc4cc(F)cc(C#N)c4)c31)S(=O)(=O)C2(F)F` (centres unmarked) [Compound 13, 3-((2,2-difluoro-2a-hydroxy-4-methylene-1,1-dioxido-2,2a,3,4-tetrahydroindeno[7,1-bc]thiophen-5-yl)oxy)-5-fluorobenzonitrile], the EC50 in test [1], in test [3] and in test [2] was below 0.05 µM each time.

With `N#Cc1cc(F)cc(Oc2ccc3c4c2C(F)CC4(F)CS3(=O)=O)c1` (centres unmarked) [Compound 1], the 50% effective concentration (EC50) in test [1] is above 1 µM.

As for `N#Cc1cc(F)cc(Oc2ccc3c4c2CCC4(O)C(F)(F)S3(=O)=O)c1` (centres unmarked) [Compound 4], the 50% effective concentration (EC50) in test [1] and in test [2] was 0.05 to 0.249 µM each time.

In the case of `N#Cc1cc(F)cc(Oc2ccc3c4c2C(F)CC4(O)C(F)(F)S3(=O)=O)c1` (centres unmarked) [Compound 6, 3-fluoro-5-((2,2,4-trifluoro-2a-hydroxy-1,1-dioxido-2,2a,3,4-tetrahydroindeno[7,1-bc]thiophen-5-yl)oxy)benzonitrile], the EC50 was below 0.05 µM in test [1], 0.05 to 0.249 µM in test [3] and below 0.05 µM in test [2].

For `CC1CC2(O)c3c(ccc(Oc4cc(F)cc(C#N)c4)c31)S(=O)(=O)C2(F)F` (centres unmarked) [Compound 8, 3-((2,2-difluoro-2a-hydroxy-4-methyl-1,1-dioxido-2,2a,3,4-tetrahydroindeno[7,1-bc]thiophen-5-yl)oxy)-5-fluorobenzonitrile], the half-maximal effective concentration (EC50) in test [1] and in test [2] was 0.05 to 0.249 µM throughout.

For the molecule `N#Cc1cc(F)cc(Oc2ccc3c4c2C(F)CC4(O)CS3(=O)=O)c1` (centres unmarked) [Compound 7], in test [1], the EC50 was above 1 µM.

Molecule `N#Cc1cc(F)cc(Oc2ccc3c4c2C(F)C[C@@]4(O)C(F)(F)S3(=O)=O)c1` (some centres unmarked) [Compound 20] returned an EC50 in test [1] above 1 µM.
